Laboratory results from ChEMBL document CHEMBL5465560, “Selectivity Literature for EUbOPEN Chemogenomic Library” (2024).

How the values were obtained:
[1] = target: Tyrosine-protein kinase BTK (Homo sapiens, UniProt Q06187); assay: Selectivity interaction (Kinase screening (Nanosyn)) EUB0000604a BTK
[2] = tested on: Receptor-type tyrosine-protein kinase FLT3 (Homo sapiens), P36888 [UNDEFINED MUTATION]; assay: Selectivity interaction (KinomeScan (DiscoverX)) EUB0001049a FLT3; settings: at 1 µM
[3] = target: Citron Rho-interacting kinase (Homo sapiens) (UniProt O14578); assay: Selectivity interaction (Ambit KINOMEscan and KiNATiv profiling in Jurkat cells) EUB0000090b CIT; type: cell-based; settings: at 1 µM
[4] = target: T1, Mitogen-activated protein kinase kinase kinase 7 (Homo sapiens) (UniProt O43318); assay: Selectivity interaction (Ambit KINOMEscan and KiNATiv profiling in Jurkat cells) EUB0000090b MAP3K7; type: cell-based; settings: at 1 µM
T1 sequence (whole entry): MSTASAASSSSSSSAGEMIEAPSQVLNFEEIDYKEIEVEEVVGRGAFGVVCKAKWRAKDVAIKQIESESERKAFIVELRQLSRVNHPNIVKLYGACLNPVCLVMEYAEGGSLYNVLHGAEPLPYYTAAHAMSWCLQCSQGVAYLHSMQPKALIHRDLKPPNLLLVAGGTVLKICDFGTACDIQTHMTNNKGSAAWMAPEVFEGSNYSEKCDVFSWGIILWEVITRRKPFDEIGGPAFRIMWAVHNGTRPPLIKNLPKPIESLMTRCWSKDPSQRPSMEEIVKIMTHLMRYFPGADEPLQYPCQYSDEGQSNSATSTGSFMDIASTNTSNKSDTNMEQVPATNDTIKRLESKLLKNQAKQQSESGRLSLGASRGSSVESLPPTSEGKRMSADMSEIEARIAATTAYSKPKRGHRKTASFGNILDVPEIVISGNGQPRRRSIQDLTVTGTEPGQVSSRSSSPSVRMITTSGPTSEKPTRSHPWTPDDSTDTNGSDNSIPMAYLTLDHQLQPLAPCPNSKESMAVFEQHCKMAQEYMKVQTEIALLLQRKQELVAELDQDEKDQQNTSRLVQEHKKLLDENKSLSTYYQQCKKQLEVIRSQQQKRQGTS

[5] = target: Serine/threonine-protein kinase 10 (Homo sapiens) (UniProt O94804); assay: Selectivity interaction (ActivX KiNativ screen (kinase selectivity in THP-1 cell lysates)) EUB0000639a STK10; type: subcellular; settings: lysate
Serine/threonine-protein kinase 10 (Homo sapiens), sequence (O94804 whole entry, looked up): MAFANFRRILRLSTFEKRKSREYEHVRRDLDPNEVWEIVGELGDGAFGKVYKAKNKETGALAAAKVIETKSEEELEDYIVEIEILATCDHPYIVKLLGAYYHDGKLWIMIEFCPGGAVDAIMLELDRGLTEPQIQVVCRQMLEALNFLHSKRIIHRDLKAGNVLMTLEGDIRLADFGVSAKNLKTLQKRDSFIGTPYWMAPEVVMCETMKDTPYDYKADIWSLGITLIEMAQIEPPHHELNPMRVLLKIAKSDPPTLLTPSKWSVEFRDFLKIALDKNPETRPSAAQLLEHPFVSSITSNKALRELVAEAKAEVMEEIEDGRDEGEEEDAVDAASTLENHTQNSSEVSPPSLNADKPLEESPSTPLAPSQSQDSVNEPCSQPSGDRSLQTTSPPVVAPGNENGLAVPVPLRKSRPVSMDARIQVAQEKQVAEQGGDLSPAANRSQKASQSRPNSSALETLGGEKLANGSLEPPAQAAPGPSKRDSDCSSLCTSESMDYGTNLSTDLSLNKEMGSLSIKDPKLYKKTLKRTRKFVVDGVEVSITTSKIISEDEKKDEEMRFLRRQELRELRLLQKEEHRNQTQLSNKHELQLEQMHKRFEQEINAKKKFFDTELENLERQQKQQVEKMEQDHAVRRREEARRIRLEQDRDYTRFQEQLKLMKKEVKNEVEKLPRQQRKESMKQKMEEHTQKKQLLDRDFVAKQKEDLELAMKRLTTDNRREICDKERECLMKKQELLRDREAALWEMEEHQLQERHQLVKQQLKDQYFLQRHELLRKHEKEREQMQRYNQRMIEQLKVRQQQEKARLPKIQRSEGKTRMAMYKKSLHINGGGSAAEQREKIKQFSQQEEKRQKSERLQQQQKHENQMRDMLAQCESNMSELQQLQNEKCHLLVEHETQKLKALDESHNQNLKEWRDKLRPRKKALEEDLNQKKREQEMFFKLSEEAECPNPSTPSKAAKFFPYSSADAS

[6] = target: Mitogen-activated protein kinase 14 (Homo sapiens, UniProt Q16539); assay: Selectivity interaction (KinomeScan (DiscoverX)) EUB0000229b MAPK14; settings: at 10 µM
Mitogen-activated protein kinase 14, sequence (Q16539 whole entry): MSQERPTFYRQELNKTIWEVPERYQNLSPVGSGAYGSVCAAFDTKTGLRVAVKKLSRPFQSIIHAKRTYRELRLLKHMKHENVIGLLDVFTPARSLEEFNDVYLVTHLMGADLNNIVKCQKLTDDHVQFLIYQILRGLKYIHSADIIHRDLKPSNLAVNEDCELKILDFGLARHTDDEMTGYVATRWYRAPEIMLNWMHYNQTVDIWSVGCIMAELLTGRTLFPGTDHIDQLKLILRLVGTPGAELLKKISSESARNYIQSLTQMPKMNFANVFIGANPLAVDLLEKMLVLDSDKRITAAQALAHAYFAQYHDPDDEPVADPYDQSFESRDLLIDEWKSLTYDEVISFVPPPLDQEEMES

[7] = target: Wee1-like protein kinase (Homo sapiens) (UniProt P30291); assay: Selectivity interaction (ProQinase) EUB0000171b WEE1
Wee1-like protein kinase (Homo sapiens), sequence (P30291 whole entry, looked up): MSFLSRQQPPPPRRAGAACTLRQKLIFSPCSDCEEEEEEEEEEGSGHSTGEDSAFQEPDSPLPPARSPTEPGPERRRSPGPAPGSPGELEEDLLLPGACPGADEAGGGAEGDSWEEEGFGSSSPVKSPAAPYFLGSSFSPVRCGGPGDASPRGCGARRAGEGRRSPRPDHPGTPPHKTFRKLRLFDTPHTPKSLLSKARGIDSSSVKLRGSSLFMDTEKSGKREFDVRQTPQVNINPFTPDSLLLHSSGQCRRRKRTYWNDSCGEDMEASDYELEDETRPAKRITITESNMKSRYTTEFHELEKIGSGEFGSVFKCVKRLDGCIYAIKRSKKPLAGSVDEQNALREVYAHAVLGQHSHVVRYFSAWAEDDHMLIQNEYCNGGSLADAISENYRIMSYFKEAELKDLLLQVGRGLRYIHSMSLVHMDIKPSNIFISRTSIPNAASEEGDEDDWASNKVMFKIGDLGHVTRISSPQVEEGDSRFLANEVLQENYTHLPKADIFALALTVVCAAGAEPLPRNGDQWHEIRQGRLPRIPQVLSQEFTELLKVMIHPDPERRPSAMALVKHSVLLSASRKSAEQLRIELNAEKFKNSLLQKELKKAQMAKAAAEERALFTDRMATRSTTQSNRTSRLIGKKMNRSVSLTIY

[8] = tested on: Epidermal growth factor receptor (Homo sapiens), P00533 [UNDEFINED MUTATION]; assay: Selectivity interaction (KinomeScan (DiscoverX)) EUB0000045b EGFR; settings: at 10 µM
[9] = target: Serine/threonine-protein kinase 38-like (Homo sapiens) (UniProt Q9Y2H1); assay: Selectivity interaction (KinomeScan (DiscoverX)) EUB0000045b STK38L
Serine/threonine-protein kinase 38-like (Homo sapiens), sequence (Q9Y2H1 2-464 limits assumed): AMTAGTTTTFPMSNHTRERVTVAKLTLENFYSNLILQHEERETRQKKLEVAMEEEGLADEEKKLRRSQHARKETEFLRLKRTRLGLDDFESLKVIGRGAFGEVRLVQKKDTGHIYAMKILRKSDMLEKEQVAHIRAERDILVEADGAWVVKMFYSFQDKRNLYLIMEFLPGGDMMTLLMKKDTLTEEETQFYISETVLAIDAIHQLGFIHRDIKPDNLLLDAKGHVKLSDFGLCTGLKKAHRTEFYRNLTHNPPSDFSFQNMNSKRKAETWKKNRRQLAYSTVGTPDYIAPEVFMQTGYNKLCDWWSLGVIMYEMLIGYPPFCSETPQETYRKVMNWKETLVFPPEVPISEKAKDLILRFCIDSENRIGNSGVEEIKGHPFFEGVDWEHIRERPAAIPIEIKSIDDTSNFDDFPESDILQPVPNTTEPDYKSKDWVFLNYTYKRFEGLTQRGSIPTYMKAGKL

[10] = target: Tyrosine-protein kinase Fyn (Homo sapiens) (UniProt P06241); assay: Selectivity interaction (KinomeScan (DiscoverX)) EUB0000045b FYN
Tyrosine-protein kinase Fyn (Homo sapiens), sequence (P06241 2-537 limits assumed): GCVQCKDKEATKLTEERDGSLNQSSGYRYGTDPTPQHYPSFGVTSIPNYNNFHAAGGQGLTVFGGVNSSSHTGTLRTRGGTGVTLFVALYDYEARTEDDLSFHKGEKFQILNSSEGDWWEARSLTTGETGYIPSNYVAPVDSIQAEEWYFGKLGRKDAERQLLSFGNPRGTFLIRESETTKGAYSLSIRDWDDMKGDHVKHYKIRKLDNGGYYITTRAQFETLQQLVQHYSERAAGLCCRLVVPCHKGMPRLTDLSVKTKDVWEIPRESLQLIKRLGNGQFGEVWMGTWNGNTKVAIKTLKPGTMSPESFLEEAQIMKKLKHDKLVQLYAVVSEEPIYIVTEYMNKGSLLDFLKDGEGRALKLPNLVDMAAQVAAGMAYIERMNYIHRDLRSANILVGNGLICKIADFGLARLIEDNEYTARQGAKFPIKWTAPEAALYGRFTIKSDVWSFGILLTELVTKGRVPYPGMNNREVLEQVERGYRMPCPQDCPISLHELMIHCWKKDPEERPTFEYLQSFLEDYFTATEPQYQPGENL

[11] = target: Mitogen-activated protein kinase 9 (Homo sapiens, UniProt P45984); assay: Selectivity interaction (KinomeScan (DiscoverX)) EUB0000655a MAPK9; settings: at 10 µM
Mitogen-activated protein kinase 9, sequence (P45984 whole entry, looked up): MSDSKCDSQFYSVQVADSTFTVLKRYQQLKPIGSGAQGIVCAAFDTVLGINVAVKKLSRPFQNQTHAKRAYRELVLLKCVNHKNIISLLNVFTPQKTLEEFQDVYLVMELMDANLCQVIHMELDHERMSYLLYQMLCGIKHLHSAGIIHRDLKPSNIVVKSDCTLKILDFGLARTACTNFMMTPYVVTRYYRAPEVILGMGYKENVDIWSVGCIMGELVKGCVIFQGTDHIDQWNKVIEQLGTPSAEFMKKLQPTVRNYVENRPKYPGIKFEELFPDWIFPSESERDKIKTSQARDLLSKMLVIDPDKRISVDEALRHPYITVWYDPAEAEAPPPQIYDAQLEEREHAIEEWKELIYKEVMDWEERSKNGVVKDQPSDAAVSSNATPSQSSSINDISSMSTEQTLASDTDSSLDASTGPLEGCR

[12] = target: MAP kinase-interacting serine/threonine-protein kinase 2 (Homo sapiens, UniProt Q9HBH9); assay: Selectivity interaction (KinomeScan (DiscoverX)) EUB0001619a MKNK2; settings: at 1 µM
[13] = target: Serine/threonine-protein kinase 38-like (Homo sapiens) (UniProt Q9Y2H1); assay: Selectivity interaction (ActivX KiNativ screen (ex vivo kinase selectivity in human PBMCs)) EUB0001619a STK38L; type: cell-based; settings: PBMC, at 1 µM
[14] = target: RAC-gamma serine/threonine-protein kinase (Homo sapiens, UniProt Q9Y243); assay: Selectivity interaction (KinomeScan (DiscoverX)) EUB0000607a AKT3; settings: at 10 µM
[15] = target: eIF-2-alpha kinase GCN2 (Homo sapiens) (UniProt Q9P2K8); assay: Selectivity interaction (Kinase panel (KiNativ target engagement assay in Jurkat cells)) EUB0001635a EIF2AK4; type: cell-based; settings: at 1 µM
eIF-2-alpha kinase GCN2 (Homo sapiens), sequence (Q9P2K8 whole entry): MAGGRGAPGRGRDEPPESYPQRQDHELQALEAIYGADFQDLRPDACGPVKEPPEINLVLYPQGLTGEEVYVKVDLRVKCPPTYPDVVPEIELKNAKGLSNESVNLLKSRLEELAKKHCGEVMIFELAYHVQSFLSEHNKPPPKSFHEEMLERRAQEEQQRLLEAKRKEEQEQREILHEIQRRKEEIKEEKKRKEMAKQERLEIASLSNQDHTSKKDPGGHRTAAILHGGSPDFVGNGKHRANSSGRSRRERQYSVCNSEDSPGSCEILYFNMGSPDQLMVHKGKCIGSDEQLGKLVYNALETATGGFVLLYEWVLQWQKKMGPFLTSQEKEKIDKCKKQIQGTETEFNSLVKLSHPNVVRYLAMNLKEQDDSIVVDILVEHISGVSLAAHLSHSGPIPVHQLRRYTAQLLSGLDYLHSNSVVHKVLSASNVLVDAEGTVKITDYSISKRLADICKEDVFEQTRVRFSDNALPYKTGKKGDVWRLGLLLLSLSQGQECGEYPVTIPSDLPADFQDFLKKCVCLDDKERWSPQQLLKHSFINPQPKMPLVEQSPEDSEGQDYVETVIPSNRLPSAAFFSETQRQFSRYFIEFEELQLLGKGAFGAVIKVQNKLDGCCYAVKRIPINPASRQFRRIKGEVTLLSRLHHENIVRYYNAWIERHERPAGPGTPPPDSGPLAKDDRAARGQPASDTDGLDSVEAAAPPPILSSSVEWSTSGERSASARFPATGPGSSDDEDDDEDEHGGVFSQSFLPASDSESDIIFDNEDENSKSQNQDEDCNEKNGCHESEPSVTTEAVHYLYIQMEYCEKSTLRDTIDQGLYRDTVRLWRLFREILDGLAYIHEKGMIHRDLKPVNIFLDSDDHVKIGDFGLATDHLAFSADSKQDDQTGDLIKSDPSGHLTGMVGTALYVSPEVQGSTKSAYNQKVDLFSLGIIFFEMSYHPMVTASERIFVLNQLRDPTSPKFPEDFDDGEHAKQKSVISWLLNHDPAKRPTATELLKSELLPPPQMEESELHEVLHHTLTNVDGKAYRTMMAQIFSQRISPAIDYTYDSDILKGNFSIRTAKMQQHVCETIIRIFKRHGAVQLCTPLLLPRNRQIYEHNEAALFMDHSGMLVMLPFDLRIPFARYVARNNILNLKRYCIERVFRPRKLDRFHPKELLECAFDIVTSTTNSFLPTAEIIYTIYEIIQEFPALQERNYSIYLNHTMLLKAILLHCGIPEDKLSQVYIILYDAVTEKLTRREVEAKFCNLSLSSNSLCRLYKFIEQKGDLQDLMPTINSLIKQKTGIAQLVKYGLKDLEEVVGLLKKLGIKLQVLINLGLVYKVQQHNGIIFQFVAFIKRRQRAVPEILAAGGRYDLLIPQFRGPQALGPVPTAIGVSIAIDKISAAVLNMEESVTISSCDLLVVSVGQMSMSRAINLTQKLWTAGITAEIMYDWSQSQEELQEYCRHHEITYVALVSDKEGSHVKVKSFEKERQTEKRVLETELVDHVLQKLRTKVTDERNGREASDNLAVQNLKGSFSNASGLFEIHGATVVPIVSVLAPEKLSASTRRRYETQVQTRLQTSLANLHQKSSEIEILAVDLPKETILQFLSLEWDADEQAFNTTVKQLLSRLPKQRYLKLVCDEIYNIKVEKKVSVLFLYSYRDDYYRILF

Compound: Cc1cnc(Nc2ccc(F)cc2Cl)nc1-c1c[nH]c(C(=O)N[C@H](CO)c2cccc(Cl)c2)c1
- % of inhibition [1]: 5%

Compound: COc1cc(Nc2nc(C)cc(-c3cnn4nc(OC)ccc34)n2)cc(C(F)(F)F)c1
- % of control [2]: 73%

Compound: CN(C)C/C=C/C(=O)Nc1ccc(C(=O)N2CCCC(Nc3ncc(Cl)c(-c4c[nH]c5ccccc45)n3)C2)cc1 (stereo not drawn)
- % of control [3]: 83%
- % of control [4]: 90%

Compound: CC[C@@H]1[C@H](F)C(=O)N[C@@H]1COc1nccc2cc(C(N)=O)c(OC)cc12 [ZIMLOVISERTIB]
- % of inhibition ([5]; at 0.01 µM): -11.4%
- % of inhibition ([5]; at 0.04 µM): -6.2%
- % of inhibition ([5]; at 0.2 µM): -5.3%
- % of inhibition ([5]; at 1 µM): 2.8%
- % of inhibition ([5]; at 5 µM): -12.4%

Compound: COc1cc(N(C)c2ccnc3ccc(C(F)(F)F)cc23)cc(OC)c1OC
- % binding [6]: 81%

Compound: C=CC(=O)Nc1cccc(C(=O)Nc2ccc(Nc3cc(-c4[nH]c(SC)nc4C)ccn3)cc2)c1
- % of control ([7]; at 1 µM): 73%
- % of control ([7]; at 5 µM): 79%

Compound: C=CC(=O)Nc1cc(-n2c(=O)ccc3cnc4ccc(-c5ccc(NS(C)(=O)=O)cc5)cc4c32)ccc1C
- % of control [8]: 65%
- % of control ([9]; at 1 µM): 100%
- % of control ([9]; at 10 µM): 95%
- % of control ([10]; at 1 µM): 100%
- % of control ([10]; at 10 µM): 98%

Compound: CN(C)CCOc1ccc(-c2nc(-c3ccncc3)c(-c3ccc4c(c3)CC/C4=N\O)[nH]2)cc1
- % of control [11]: 5.1%

Compound: N#Cc1cccc(-c2c[nH]c3ncnc(N4CCOCC4)c23)c1
- % of control [12]: 90%
- % of inhibition [13]: 20%

Compound: CNC(=O)Nc1ccc(-c2nc(N3CC4CCC(C3)O4)c3cnn(C4CCC5(CC4)OCCO5)c3n2)cc1
- % of control [14]: 86%

Compound: C=CC(=O)Nc1ccc(C(=O)Nc2[nH]nc3c2CN(C(=O)N[C@H](CN(C)C)c2ccccc2)C3(C)C)cc1
- % of engagement ([15]; Selectivity number of off-targets 0.0, Selectivity number of targets 233.0, Source Knowledge https://www.sciencedirect.com/science/article/pii/S2451945619300674?via%3Dihub): -7.2%
- % of engagement [15]: -16.6%
